Experimental data as given in publication PMC3131587, “Sulfotyrosine Recognition as Marker for Druggable Sites in the Extracellular Space” (International Journal of Molecular Sciences, 2011).

Legend:
CCL5 = target: T1, CCL5 (Homo sapiens, UniProt P13501); test: 2D 1H-15N HSQC NMR titration; format: binding; conditions: 50 mM NaPO4 pH 3.2, 25 °C; 125 μM protein (dimeric); 0-100 mM ligand
T1 construct: [U-15N] recombinant mature chemokine, signal peptide removed; dimeric in the assay
T1 sequence (P13501 24-91): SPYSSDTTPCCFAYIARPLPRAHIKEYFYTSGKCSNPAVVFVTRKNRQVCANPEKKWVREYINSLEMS

CX3CL1 = target: T2, CX3CL1 (Homo sapiens, UniProt P78423); test: 2D 1H-15N HSQC NMR titration; format: binding; conditions: unbuffered pH 3.6, 25 °C; 250 μM protein; 0-100 mM ligand
T2 sequence (P78423 25-100): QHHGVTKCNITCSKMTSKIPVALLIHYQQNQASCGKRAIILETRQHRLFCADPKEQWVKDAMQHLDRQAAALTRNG

CXCL12 = target: T3, CXCL12 (Homo sapiens, UniProt P48061); test: 2D 1H-15N HSQC NMR titration; format: binding; conditions: 25 mM d-MES pH 6.8, 37 °C; 250 μM protein; 0-100 mM ligand; shifts at the sTyr21 and sTyr12 sites
T3 construct: [U-15N] recombinant mature chemokine, signal peptide removed; predominantly monomer under assay conditions

CCL5 (Homo sapiens) = CCL5 (Homo sapiens) (UniProt P13501); conditions: cited from earlier work

Row | Compound | chemical shift perturbation (CCL5) | chemical shift perturbation (CX3CL1) | chemical shift perturbation (CXCL12) | Kd (CCL5 (Homo sapiens)) [µM]
1 | N[C@@H](Cc1ccc(OS(=O)(=O)O)cc1)C(=O)O [sulfotyrosine] | Residues His23, Lys45, and Arg47 identified in our titration | Sulfotyrosine titration produced significant perturbations in CX3CL1 residues | HSQC spectral overlays (Figure 4A) demonstrate significant chemical shift perturbations in the chemokine | –
2 | CCL5 (from UniProt P13501) | – | – | – | 35
